Assay results from patent US5981540A, “Heterocycle-condensed morphinoid derivatives” (SmithKline Beecham Farmaceutici S.P.A., priority 1994, dated 1999).
pIC50, pKi: −log10 of the molar value. Structures can show the parent of a compound that is named as a salt.

Columns and labels:
[1] = molecular target: T1, delta opioid receptor (Mus musculus, UniProt P32300); experiment: Radioligand binding, delta opioid receptor ([3H]-DADLE, mouse brain membranes); settings: [3H]-DADLE binding, 1.3 nM, with 40 nM unlabelled DAMGO
T1 construct: Mouse brain membranes were prepared as described by; from tissue; host or cells: mouse brain membranes
T1 sequence (P32300 whole entry): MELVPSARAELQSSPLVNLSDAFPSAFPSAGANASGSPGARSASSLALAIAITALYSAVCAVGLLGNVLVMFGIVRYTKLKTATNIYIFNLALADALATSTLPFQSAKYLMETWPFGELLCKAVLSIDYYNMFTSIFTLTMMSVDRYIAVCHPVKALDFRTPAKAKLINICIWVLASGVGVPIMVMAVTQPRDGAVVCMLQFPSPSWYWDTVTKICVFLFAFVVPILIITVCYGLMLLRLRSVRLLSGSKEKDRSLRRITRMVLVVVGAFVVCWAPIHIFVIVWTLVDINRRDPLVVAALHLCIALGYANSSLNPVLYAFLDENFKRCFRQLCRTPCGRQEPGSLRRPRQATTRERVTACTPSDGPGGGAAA
Description: (§1) Mouse brain membranes were prepared as described by Kosteriitz (Br. J. Pharmacol., 1981, 73, 939.). […] The binding of the mu ligand [^3 H]-DAMGO (Eur. J. Pharmacol., 1989, 166, 213) and of the kappa ligand [^3 H]-U69593 (Excerpta Medica, 1990, 211) were carried out at 0.5 nM. The non-specific binding was determined in presence of naloxone (10 μM) for all tritiated ligands. […] The IC50 obtained were used to calculate the inhibitory constants (Ki) accordingly to the Cheng and Prusoff relation (Biochem. Pharmacol., 1973, 22, 3099).

[2] = molecular target: T2, mu opioid receptor (Mus musculus, UniProt P42866); experiment: Radioligand binding, mu opioid receptor ([3H]-DAMGO, mouse brain membranes); settings: selectivity ratio, mu vs delta
T2 construct: Mouse brain membranes were prepared as described by; from tissue; host or cells: mouse brain membranes
T2 sequence (P42866 whole entry): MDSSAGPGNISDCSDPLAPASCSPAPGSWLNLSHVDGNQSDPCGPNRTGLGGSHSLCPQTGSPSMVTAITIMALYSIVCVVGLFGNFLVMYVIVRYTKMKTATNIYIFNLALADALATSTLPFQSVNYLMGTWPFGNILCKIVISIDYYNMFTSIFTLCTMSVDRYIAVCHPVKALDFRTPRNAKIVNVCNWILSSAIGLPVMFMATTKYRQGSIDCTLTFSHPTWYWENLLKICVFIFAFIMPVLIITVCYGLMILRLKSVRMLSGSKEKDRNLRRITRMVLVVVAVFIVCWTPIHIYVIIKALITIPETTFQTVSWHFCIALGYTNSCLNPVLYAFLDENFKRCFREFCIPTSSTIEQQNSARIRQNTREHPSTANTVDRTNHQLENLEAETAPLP
Description: as §1

[3] = molecular target: T3, kappa opioid receptor (Mus musculus, UniProt P33534); experiment: Radioligand binding, kappa opioid receptor ([3H]-U69593, mouse brain membranes); settings: selectivity ratio, kappa vs delta
T3 construct: Mouse brain membranes were prepared as described by; from tissue; host or cells: mouse brain membranes
T3 sequence (P33534 whole entry): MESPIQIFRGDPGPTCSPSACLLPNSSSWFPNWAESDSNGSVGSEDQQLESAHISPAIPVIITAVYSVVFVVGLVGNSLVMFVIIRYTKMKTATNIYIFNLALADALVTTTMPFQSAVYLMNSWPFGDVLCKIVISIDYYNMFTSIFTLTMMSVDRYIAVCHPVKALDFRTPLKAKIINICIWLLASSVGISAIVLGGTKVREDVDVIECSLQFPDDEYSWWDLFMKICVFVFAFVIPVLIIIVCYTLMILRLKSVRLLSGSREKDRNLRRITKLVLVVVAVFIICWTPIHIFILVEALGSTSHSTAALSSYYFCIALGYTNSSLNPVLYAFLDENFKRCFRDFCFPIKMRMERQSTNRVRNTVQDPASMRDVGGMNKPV
Description: as §1

[4] = molecular target: delta opioid receptor (mouse vas deferens); experiment: Mouse vas deferens (MVD) bioassay, delta agonist/antagonist activity
Description: The delta agonist/antagonist activity of the compounds of the present invention is determined in the mouse vas deferens (MVD) bioassay as described below.
Vasa deferentia were obtained from CD-1 mice and were suspended in a Mg^2+ -free Krebs buffer at 37° C. The tissues were electrically stimulated with pulse trains having the following parameters: train duration 50 ms, stimulus duration 2 ms, frequency of stimuli 50 Hz, maximal voltage 60-70 V, train frequency 0.1 Hz. Concentration response curves for each compounds were constructed cumulatively. Linear regression analysis and IC50 concentrations were evaluated according to Tallarida and Murray (Manual of Pharmacological Calculations, Springer Verlag N.Y., 1981).

## CCN(CC)C(=O)c1[nH]c2c(c1C)C[C@H]1[C@H]3Cc4ccc(OC)c5c4[C@@]1(CCN3C)[C@H]2O5 [Example 7, [8R-(4bS*,8α,8aβ,12bβ)]-11-Diethylaminocarbonyl-7,10-dimethyl-1-methoxy-5,6,7,8,12,12b-hexahyro-(9H)-4,8-methanobenzofuro[3,2-e]pyrrolo[2,3-g]isoquinoline hydrochloride]
[1]
  pKi: 8.80
[2]
  Ki mu/Ki delta: 218
[3]
  Ki kappa/Ki delta: 2259
[4]; electrically stimulated mouse vas deferens, 37° C.
  pIC50: 7.60
[4]; in presence of 30 nM of NTI (naltrindole), MVD
  shift of the dose-response curve by NTI (selective antagonism): 10 fold
